From patent US5808109A, “Compounds that inhibit complement and/or suppress immune activity” (T Cell Sciences, Inc., priority 1995, dated 1998) come the findings set out here.

One data set has as its system C5a production. The experiment in a line: Inhibition of C5a production in human serum (aggregated IgG, RIA). It counts as biochemical. Conditions: concentration inhibiting C5a production 50% relative to control. How it is done:
The ability to inhibit complement was tested by assaying for specific inhibition of C3a and C5a production. For all experiments, a single human serum pool, to be used as a source of complement, was aliquoted and stored frozen at -70° C. Human IgG was heat-aggregated, aliquoted, and stored frozen at -70° C. For each experiment, serum aliquots were equilibrated at 37° C. with varying concentrations of the compounds tested. The classical complement pathway was initiated by the addition of aggregated human IgG. Control samples containing no IgG were always included. After a fixed reaction time of 10 minutes (determined in an earlier time-course study to provide a convenient time interval during which the production of C5a or C3a is nearly complete, i.e., greater than 90%), the levels of the released complement peptides (C5a or C3a) were determined by radioimmunoassay using commercially available radioimmunoassay (RIA) kits (C5a RIA, UpJohn Cat. No. 3250-02; C3a RIA, UpJohn Cat. No. 3245-01; C5a RIA, Amersham Cat. No. RPA.520; C3a RIA, Amersham RPA.518).
Since a competitive immunoassay was used, complement peptide (C5a and C3a) concentrations varied inversely with the counts. The Counts Bound (CB) for a sample was defined as the total counts (in counts per minute, cpm) measured in the pellet minus the counts measured in a nonspecific binding (NSB) control. The NSB control was a sample containing only tracer peptide (^125 I-labelled) and second precipitating antiserum; it contained no C5a- or C3a-specific antiserum.
The y-axis in FIG. 2 represents the fraction inhibition. The fraction inhibition is equal to the Counts Bound (CB) for a "sample," less the CB in the "sample with no added compound," divided by the CB for the "no IgG control" less the CB in the "sample with no added compound." [formula]
FIG. 2 is representative of the data plots obtained from the assays described above.

The test system of the next data set is human complement. As to the kind of experiment: Inhibition of complement-mediated hemolysis, human serum, sensitized sheep erythrocytes. It counts as biochemical. How it is done:
The ability to inhibit complement was also tested by assaying for inhibition of complement-mediated red cell lysis (hemolysis). The inhibition of hemolysis was determined as a function of compound concentration. The compounds to be tested were diluted in 0.1M Hepes buffer (0.15N NaCl, pH 7.4), and 50 μl were added to each well of a V-bottom microtiter plate. Human serum, used as the complement source, was diluted 1 to 500 in Hepes buffer, and 50 μl were added to each well. Next, commercially available sheep erythrocytes with anti-sheep antibody (Diamedix Cat. No. 789-001) were used as received and added at 100 μl/well to initiate the complement pathway leading to hemolysis. The plate was incubated for 60 minutes at 37° C. and then centrifuged at 500×g for 10 minutes. The supernatants were removed and placed in a flat-bottom microtiter plate. The extent of hemolysis was measured as a function of the sample absorbance at 410 nm. The maximal absorbance (corresponding to maximal hemolysis), Amax, was obtained from the absorbance value of an erythrocyte sample containing only human serum, AS, less the absorbance of a sample containing only the red cells, A0. Thus, Amax =AS -A0. The difference between the absorbance of an erythrocyte sample containing both human serum and inhibitive compound, and the absorbance of a cell sample containing inhibitive compound only, was defined as Asample. The inhibition, IH, was expressed as the fraction (Amax -Asample)/Amax, and IH50 was defined as the concentration of inhibitive compound required to produce a value of IH=1/2.
The 4 substituted spirobenzofuran compounds of example 7 and the disubstituted spirobenzofuran compounds of example 8 were tested for their capacity to inhibit complement-mediated lysis of sheep red blood cells (SRBC) as described in Section 6.6.2 supra with the modification that the human serum used as the complement source was diluted to 1 to 100 in Hepes buffer, instead of […]. The results of the hemolysis assays are shown in FIG. 8 and Tables XI and XII.

The test system of data set [1] is human peripheral blood lymphocytes (PBL). The experiment in a line: Inhibition of proliferation of peripheral blood lymphocytes, 3H-thymidine incorporation. It counts as cell-based. To be noted: Lymphocyte. How it is done: The proliferation of human peripheral blood lymphocytes (PBL) in response to phytohemagglutinin (PHA, Well-come) or anti-CD3 monoclonal antibody (OKT-3, Ortho) was assessed by the incorporation of ^3 H-thymidine. Compound 11a was diluted in culture media to the desired concentrations, human PBL were added to a final concentration of 10^6 cells/ml, and then either PHA (Wellcome) or anti-CD3 (OKT3, Ortho) antibody (final concentration, […]) was added to initiate proliferation. The final volume per sample was 100 μl. The cells were incubated for 72 hours after stimulation, pulsed with 1 μCi ^3 H-thymidine per sample for 4 hours, harvested, and counted in a scintillation counter. […] Because cell viability was unaffected by the presence of 11a (see supra), the inhibition apparently was not due to cytotoxic effects.

For data set [2], the system named is cell surface IL-2R expression. The experiment in a line: Inhibition of cell surface IL-2R expression, PHA-stimulated PBL, flow cytometry. It counts as cell-based. To be noted: PHA 72 h, total cell count 5000. As to the method: Compounds were tested for their ability to inhibit T cell activation, as indicated by inhibition of cell-surface IL-2R expression. PBL cultures (1.5 ml; 24-well plates) were stimulated with PHA (1 μg/ml) for 72 hours in the absence or presence of varying amounts of compound 11a. Subsequently, the cells were stained using fluorescein isothiocyanate (FITC)-labeled anti-IL-2R antibody (Act-T-Set IL-2R, Cat. No. AA2009, T Cell Sciences, Inc., Cambridge, Mass.) and analyzed by flow cytometry (Ortho System 30) (Table X).
For orientation: In flow cytometry, cells or beads pass a laser one at a time.

Data set [3] relates to human peripheral blood lymphocytes (PBL). As to the kind of experiment: Inhibition of proliferation of peripheral blood lymphocytes, 3H-thymidine incorporation. It counts as cell-based. To be noted: without stimulant, concentration ranges used in the proliferation assay. (In general: Dividing cells build labelled thymidine or BrdU into new DNA.)

Read-outs that look alike come from different tables or passages of the source.

Consider `COc1ccc(C(=O)O)c2c1CC1(CCCCC1)O2` [Compound 11a, 7-carboxy-4-methoxyspiro[benzofuran-2(3H)-cyclohexane]], for which the IC50 in the data set on C5a production is 5000 µM; in the data set with human complement (Table VII, human serum, read-out: IHO50), 1330 µM; in the data set on human complement (Table XI, human serum diluted 1 to 100, read-out: IH50 Mean), 1330 µM; with human complement (from FIG. 3 plot, read-out: IH50 (the source's name)), about 900 µM; in data set [1] (PHA stimulated (FIG. 4), read-out: Half-maximal inhibition of PBL proliferation), about 500 µM; in data set [1] (Table IX, PHA stimulation, 72 h, read-out: IP50 PHA-stimulated PBL), 400 µM. Also, the IC50 in data set [1] (Table IX, anti-CD3 (OKT-3) stimulation, 72 h, read-out: IP50 OKT-3-stimulated PBL) amounted to 500 µM. Also, the results for the “Number of Cells Positive for IL-2R” value in data set [2] (0.44 nM (so in the source)) and in data set [2] (1.76 nM (so in the source)) were 913 and 225, respectively. For the same compound, the “Percentage Positive” value in data set [2] (0.44 nM (so in the source)) is given as 18.3; in data set [2] (1.76 nM (so in the source)), 4.5. Moreover, in data set [3], the “PBL viability by trypan blue exclusion” value is listed as “viable”.
